# Experimental data as given in patent US20170334899A1, “AMINO-SUBSTITUTED ISOTHIAZOLES” (Bayer Pharma Aktiengesellschaft, priority 2014, published 2017).
# Tests used:
# CDK2/CycE = biological target: T1, CDK2/CycE (Homo sapiens, UniProt P24941); test: CDK2/CycE kinase assay (TR-FRET); type: biochemical; conditions: avg, read-out: CDK2 avg (IC50 [mol/l])
# T1 construct: GST; purchased ProQinase GmbH (Freiburg, Germany); host or cells: insect cells (Sf9)
# Summary of the method: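 GST-tagged human CDK2 and CycE from Sf9 cells, preincubated 15 min with compound, then 25 min at 22° C. with 10 μM ATP and 0.75 μM biotinylated Rb-derived peptide (final). Phospho-substrate read by TR-FRET (anti-pRB pSer807/pSer811, Eu anti-mouse IgG, streptavidin-XL665), 665/620 nm ratio, normalised to no-inhibitor and no-enzyme controls.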
# HeLa = test: Proliferation assay (crystal violet), HeLa; type: cell-based; conditions: Homo sapiens, HeLa, 96 h, HeLa cells; 4 days incubation; crystal violet staining; read-out: IC50 inhibition of proliferation, HeLa
# Summary of the method: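 Cells plated at 1000-5000/well with 10% FCS, treated after 24 h with compound at 0.001-10 μM (0.5% DMSO) for 4 days. Glutaraldehyde-fixed, crystal violet-stained, A595 normalised to zero-point plate (0%) and untreated cells (100%); IC50 by 4-parameter fit.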
Structure (SMILES),IC50 (CDK2/CycE),IC50 (HeLa)
"Cc1nsc(Nc2cncc(C(F)(F)F)n2)c1C(=O)Nc1ccc(OC2CCN(CC(F)F)CC2)c(F)c1 [Example 224, N-(4-{[1-(2,2-difluoroethyl)piperidin-4-yl]oxy}-3-fluorophenyl)-3-methyl-5-{[6-(trifluoromethyl)pyrazin-2-yl]amino}-1,2-thiazole-4-carboxamide]",> 20 µM,0.32 µM
"Cc1nsc(Nc2cncc(C(F)(F)F)n2)c1C(=O)Nc1ccc(C(=O)NC2CCN(CC(F)F)CC2)cc1 [Example 225, N-N-(4-{[1-(2,2-difluoroethyl)piperidin-4-yl]carbamoyl}phenyl)-3-methyl-5-{[6-(trifluoromethyl)pyrazin-2-yl]amino}-1,2-thiazole-4-carboxamide]",> 20 µM,8.3 µM
"Cc1nsc(Nc2cncc(C(F)(F)F)n2)c1C(=O)Nc1ccc(OCC2CCN(C(=O)OC(C)(C)C)CC2)nc1 [Example 226, tert-butyl 4-{[(5-{[(3-methyl-5-{[6-(trifluoromethyl)pyrazin-2-yl]amino}-1,2-thiazol-4-yl)carbonyl]amino}pyridin-2-yl)oxy]methyl}piperidine-1-carboxylate]",> 20 µM,0.91 µM
"Cc1nsc(Nc2cnc(C(F)(F)F)cn2)c1C(=O)Nc1ccc(OCC2CCN(C(=O)OC(C)(C)C)CC2)nc1 [Example 227, tert-butyl 4-{[(5-{[(3-methyl-5-{[5-(trifluoromethyl)pyrazin-2-yl]amino}-1,2-thiazol-4-yl)carbonyl]amino}pyridin-2-yl)oxy]methyl}piperidine-1-carboxylate]",> 20 µM,2 µM
"Cc1nsc(Nc2cnc(C(F)(F)F)cn2)c1C(=O)Nc1ccc(OCC2CCCN(C(=O)OC(C)(C)C)C2)nc1 (stereo not shown) [Example 228, tert-butyl 3-{[(5-{[(3-methyl-5-{[5-(trifluoromethyl)pyrazin-2-yl]amino}-1,2-thiazol-4-yl)carbonyl]amino}pyridin-2-yl)oxy]methyl}piperidine-1-carboxylate]",> 20 µM,0.27 µM
"Cc1nsc(Nc2cnc(C(F)(F)F)cn2)c1C(=O)Nc1ccc(F)c(OC2CCN(C(=O)OC(C)(C)C)CC2)c1 [Example 229, tert-butyl 4-(2-fluoro-5-{[(3-methyl-5-{[5-(trifluoromethyl)pyrazin-2-yl]amino}-1,2-thiazol-4-yl)carbonyl]amino}phenoxy)piperidine-1-carboxylate]",> 20 µM,0.19 µM
"Cc1nsc(Nc2cc(C#N)ccn2)c1C(=O)Nc1ccc(Oc2cccc(C(F)(F)F)c2)nc1 [Example 230, 5-[(4-cyanopyridin-2-yl)amino]-3-methyl-N-{6-[3-(trifluoromethyl)phenoxy]pyridin-3-yl}-1,2-thiazole-4-carboxamide]",> 20 µM,0.58 µM
"Cc1nsc(Nc2cnc3ccccc3n2)c1C(=O)Nc1ccc(Oc2cccnc2)nc1 [Example 231, 3-methyl-N-[6-(pyridin-3-yloxy)pyridin-3-yl]-5-(quinoxalin-2-ylamino)-1,2-thiazole-4-carboxamide]",> 20 µM,1.8 µM
"Cc1nsc(Nc2cnc3ccccc3n2)c1C(=O)Nc1ccc(Oc2ccc(SC(F)(F)F)cc2)nc1 [Example 233, 3-methyl-5-(quinoxalin-2-ylamino)-N-(6-{4-[(trifluoromethyl)sulfanyl]phenoxy}pyridin-3-yl)-1,2-thiazole-4-carboxamide]",> 20 µM,> 10 µM
"Cc1nsc(Nc2cnc3ccccc3n2)c1C(=O)Nc1ccc(NC2CCN(C(=O)OC(C)(C)C)CC2)nc1 [Example 234, tert-butyl 4-{[5-({[3-methyl-5-(quinoxalin-2-ylamino)-1,2-thiazol-4-yl]carbonyl}amino)pyridin-2-yl]amino}piperidine-1-carboxylate]",> 20 µM,9.6 µM
"COc1ccc(NC(=O)c2c(C)nsc2Nc2cnc3ccccc3n2)c(CC#N)n1 [Example 235, N-[2-(cyanomethyl)-6-methoxypyridin-3-yl]-3-methyl-5-(quinoxalin-2-ylamino)-1,2-thiazole-4-carboxamide]",> 20 µM,2.1 µM
"Cc1nsc(Nc2cnc3ccccc3n2)c1C(=O)Nc1ccc(NCCC(=O)OC(C)(C)C)nc1 [Example 236, tert-butyl N-[5-({[3-methyl-5-(quinoxalin-2-ylamino)-1,2-thiazol-4-yl]carbonyl}amino)pyridin-2-yl]-beta-alaninate]",> 20 µM,4.1 µM
"COC(=O)c1cc(NC(=O)c2c(C)nsc2Nc2cnc3ccccc3n2)cc(C(=O)OC)c1 [Example 237, dimethyl 5-({[3-methyl-5-(quinoxalin-2-ylamino)-1,2-thiazol-4-yl]carbonyl}amino)isophthalate]",> 20 µM,> 10 µM
"Cc1nsc(Nc2cnc3ccccc3n2)c1C(=O)Nc1ccc(NCC2CCN(C(=O)OC(C)(C)C)CC2)nc1 [Example 238, tert-butyl 4-({[5-({[3-methyl-5-(quinoxalin-2-ylamino)-1,2-thiazol-4-yl]carbonyl}amino)pyridin-2-yl]amino}methyl)piperidine-1-carboxylate]",> 20 µM,8.1 µM
"Cc1nsc(Nc2cc(C#N)ccn2)c1C(=O)Nc1cccc(C(=O)OC(C)(C)C)c1 [Example 239, tert-butyl 3-[({5-[(4-cyanopyridin-2-yl)amino]-3-methyl-1,2-thiazol-4-yl}carbonyl)amino]benzoate]",> 20 µM,1.1 µM
"Cc1nsc(Nc2ccc(C#N)cn2)c1C(=O)Nc1cccc(C(=O)OC(C)(C)C)c1 [Example 240, tert-butyl 3-[({5-[(5-cyanopyridin-2-yl)amino]-3-methyl-1,2-thiazol-4-yl}carbonyl)amino]benzoate]",> 20 µM,0.75 µM
"Cc1nsc(Nc2cnc3ccccc3n2)c1C(=O)Nc1ccc(NC2CCCN(C(=O)OC(C)(C)C)C2)nc1 (stereo not shown) [Example 241, tert-butyl 3-{[5-({[3-methyl-5-(quinoxalin-2-ylamino)-1,2-thiazol-4-yl]carbonyl}amino)pyridin-2-yl]amino}piperidine-1-carboxylate]",> 20 µM,9.3 µM
"Cc1nsc(Nc2cc(C#N)ccn2)c1C(=O)Nc1ccc(NC2CCCNC2)nc1 (stereo not shown) [Example 242, 5-[(4-cyanopyridin-2-yl)amino]-3-methyl-N-[6-(piperidin-3-ylamino)pyridin-3-yl]-1,2-thiazole-4-carboxamide]",> 20 µM,> 10 µM
"Cc1cc(C)n(-c2ccccc2NC(=O)c2c(C)nsc2Nc2cnc3ccccc3n2)n1 [Example 243, N-[2-(3,5-dimethyl-1H-pyrazol-1-yl)phenyl]-3-methyl-5-(quinoxalin-2-ylamino)-1,2-thiazole-4-carboxamide]",> 20 µM,> 10 µM
"Cc1nsc(Nc2cnc3ccccc3n2)c1C(=O)Nc1ccc(NCCNC(=O)OC(C)(C)C)nc1 [Example 244, tert-butyl (2-{[5-({[3-methyl-5-(quinoxalin-2-ylamino)-1,2-thiazol-4-yl]carbonyl}amino)pyridin-2-yl]amino}ethyl)carbamate]",> 20 µM,4.2 µM
"Cc1nsc(Nc2cnc3ccccc3n2)c1C(=O)Nc1ccc(Nc2ccc(F)c(F)c2)nc1 [Example 245, N-{6-[(3,4-difluorophenyl)amino]pyridin-3-yl}-3-methyl-5-(quinoxalin-2-ylamino)-1,2-thiazole-4-carboxamide]",12 µM,9.9 µM
"Cc1nsc(Nc2ccc(C#N)cn2)c1C(=O)Nc1ccc(S(C)(=O)=O)cc1 [Example 246, 5-[(5-cyanopyridin-2-yl)amino]-3-methyl-N-[4-(methylsulfonyl)phenyl]-1,2-thiazole-4-carboxamide]",> 20 µM,7.3 µM
"CCN(CC)CCNC(=O)c1cccc(NC(=O)c2c(C)nsc2Nc2cnccn2)c1 [Example 247, N-(3-{[2-(diethylamino)ethyl]carbamoyl}phenyl)-3-methyl-5-(pyrazin-2-ylamino)-1,2-thiazole-4-carboxamide]",> 20 µM,> 10 µM
